Key:
[1] = tested on: Mycobacterium tuberculosis; assay: In vitro anti-mycobacterial activity against multiple resistant strains of Mycobacterium tuberculosis at 0.50 ug/mL; type: functional
[2] = tested on: Mycobacterium tuberculosis; assay: In vitro anti-mycobacterial activity against multiple resistant strains of Mycobacterium tuberculosis at 0.125 ug/mL; type: functional

Row | Structure (SMILES) | No. of strains [1] | No. of strains [2]
1 | CC(=O)NC[C@H]1CN(c2ccc(N3CCSCC3)c(F)c2)C(=O)O1 [SUTEZOLID] | 2 | 3
2 | CC(=O)NC[C@H]1CN(c2ccc(N3CCS(=O)(=O)CC3)c(F)c2)C(=O)O1 | 4 | –
